In US6225329A, “Modulators of protein tyrosine phosphatases (PTPases)” (Novo Nordisk A/S, priority 1998, dated 2001):

How the values were obtained:
B cell = conditions: compared to T cells; cited from earlier work
PTP1B = molecular target: T1, PTP1B (Homo sapiens, UniProt P18031); assay: Inhibition of classical PTP1B (truncated, first 321 amino acids) with p-nitrophenyl phosphate substrate; format: biochemical; conditions: p-nitrophenyl phosphate 0.16 to 10 mM; 100 mM sodium acetate pH 5.5; 25° C., 60 minutes
T1 construct: a truncated form of PTP1B (corresponding to the first 321 amino acids); made in house; host or cells: E. coli
T1 sequence (P18031 1-321): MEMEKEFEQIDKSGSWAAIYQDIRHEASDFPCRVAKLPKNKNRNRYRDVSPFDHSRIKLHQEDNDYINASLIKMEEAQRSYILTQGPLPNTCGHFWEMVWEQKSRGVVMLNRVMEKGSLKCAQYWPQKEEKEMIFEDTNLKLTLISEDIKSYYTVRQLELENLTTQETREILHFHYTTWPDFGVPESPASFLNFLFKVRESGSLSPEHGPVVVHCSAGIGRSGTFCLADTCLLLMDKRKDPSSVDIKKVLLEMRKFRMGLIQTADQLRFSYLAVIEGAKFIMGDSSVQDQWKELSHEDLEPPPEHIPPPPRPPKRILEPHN
Protocol: The assay conditions are as follows. […] The buffer used was 100 mM sodium acetate pH 5.5, 50 mM sodium chloride, 0.1% (w/v) bovine serum albumin and 5 mM dithiothreitol (total volume […]). The reaction was started by addition of the enzyme and carried out in microtiter plates at 25° C. for 60 minutes. The reactions are stopped by addition of NaOH. […] Inhibition is expressed as Ki values in μM.

[1] = osteoporotics; cited from earlier work
[2] = system: osteoblastic acid phosphatase; conditions: mitogenic concentrations of fluoride; cited from earlier work
osteoblast = conditions: cited from earlier work
[3] = system: osteoblast-like cell line UMR106; conditions: cited from earlier work; for stimulation of cell growth relative to vanadate: compared with vanadate
adipocytes = conditions: cited from earlier work
skeletal muscle = conditions: cited from earlier work
platelets = conditions: cited from earlier work
SSTR1 = SSTR1 stably expressed in CHO-K1 cells; pertussis toxin-sensitive; cited from earlier work

## Cc1occc(=O)c1[O-].Cc1occc(=O)c1[O-].[O]=[V+2] [BMLOV]
B cell
  B cell selective apoptosis: apparent B cell selective apoptosis

## O=C(O)C(=O)Nc1cc2ccccc2cc1C(=O)O [Example 2, 3-(Oxalyl-amino)naphthalene-2-carboxylic acid]
PTP1B
  Ki: 9.9 µM

## F [fluoride]
[1]
  spinal bone density: increase spinal bone density in osteoporotics
[2]
  sensitivity of osteoblastic acid phosphatase: highly sensitive

## [O]=[V]([O-])([O-])[O-] [orthovanadate]
osteoblast
  osteoblast proliferation and matrix formation: appears to enhance osteoblast proliferation and matrix formation

## [O]=[V]([O-])([O-])[O-] [vanadate]
[3]; cell alkaline phosphatase activity
  cell differentiation as measured by cell alkaline phosphatase activity: able to regulate the cell differentiation
[3]
  growth of UMR106 cells: increased the growth

## O=S(=O)([O-])[O-].[O]=[V+2] [vanadyl]
[3]
  growth of UMR106 cells: increased the growth
  stimulation of cell growth relative to vanadate: stronger stimulators of cell growth than vanadate

## pervanadate
adipocytes
  insulin response when added to whole cells: almost full insulin response
Skeletal muscle
  insulin response when added to whole cells: almost full insulin response
platelets
  tyrosine phosphorylation, secretion and aggregation of platelets: significant increase in tyrosine phosphorylation, secretion and aggregation
[3]
  growth of UMR106 cells: increased the growth
  stimulation of cell growth relative to vanadate: stronger stimulators of cell growth than vanadate

## somatostatin
SSTR1
  stimulation of PTPase activity: can stimulate PTPase activity
